In data set [1] the target is T1, MCT13 (SLC16A13), untagged, co-expressed with CD147 (Homo sapiens, UniProt Q7RTY0).
T1 construct: untagged full-length MCT13, transiently co-transfected with CD147 in HEK293T cells; with Basigin
T1 sequence (Q7RTY0 1-426): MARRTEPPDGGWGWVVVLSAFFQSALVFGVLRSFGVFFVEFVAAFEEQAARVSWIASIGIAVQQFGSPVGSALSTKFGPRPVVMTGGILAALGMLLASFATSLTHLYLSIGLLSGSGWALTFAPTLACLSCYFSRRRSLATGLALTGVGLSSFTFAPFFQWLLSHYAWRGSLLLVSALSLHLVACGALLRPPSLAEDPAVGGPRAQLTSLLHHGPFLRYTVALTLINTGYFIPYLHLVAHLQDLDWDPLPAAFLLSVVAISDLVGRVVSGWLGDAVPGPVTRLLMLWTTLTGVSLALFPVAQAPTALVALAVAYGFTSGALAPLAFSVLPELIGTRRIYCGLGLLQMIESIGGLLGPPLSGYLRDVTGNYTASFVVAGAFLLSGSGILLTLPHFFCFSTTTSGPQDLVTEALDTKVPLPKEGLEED
T1 sequence (P35613 22-385 partner): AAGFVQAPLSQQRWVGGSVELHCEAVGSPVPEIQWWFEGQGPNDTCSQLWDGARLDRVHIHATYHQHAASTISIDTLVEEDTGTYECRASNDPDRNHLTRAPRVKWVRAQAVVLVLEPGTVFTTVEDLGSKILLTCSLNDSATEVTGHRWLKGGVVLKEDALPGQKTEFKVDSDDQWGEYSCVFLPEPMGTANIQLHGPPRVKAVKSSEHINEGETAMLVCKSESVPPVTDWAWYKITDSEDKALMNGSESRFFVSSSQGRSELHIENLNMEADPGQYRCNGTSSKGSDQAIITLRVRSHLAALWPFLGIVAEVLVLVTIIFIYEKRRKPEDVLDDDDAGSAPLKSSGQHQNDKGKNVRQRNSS
Description: inhibition of cephradine uptake in transfected HEK293T cells, LC-MS/MS. The format is cell-based. As to conditions: 1 mM cephradine, KCl buffer, 5 min, mock subtracted.

The target in data set [2] is T1, MCT13 (SLC16A13), untagged, co-expressed with CD147. The description is as above. It is filed as cell-based. The settings on record: 1 mM cephradine, KCl buffer with 1% DMSO, 5 min, mock subtracted.
Data set [3] shares this target. The data set is described as above. The format is cell-based. As to conditions: HEK-293T; read-out: % inhibition at 10 mM.
Substrate in data set [4]: CC1=C(C(=O)O)N2C(=O)[C@@H](NC(=O)[C@H](N)C3=CCC=CC3)[C@H]2SC1
Description: uptake in transfected HEK293T cells, LC-MS/MS. The format is cell-based, Homo sapiens.

Consider `CCCN(CCC)S(=O)(=O)c1ccc(C(=O)O)cc1` [Probenecid], for which the “% of control at 10 mM” value in data set [1] was “Probenecid and rifampicin, which are typical inhibitors of organic anion transporters”.
As for `CO[C@H]1/C=C/O[C@@]2(C)Oc3c(C)c(O)c4c(O)c(c(/C=N/N5CCN(C)CC5)c(O)c4c3C2=O)NC(=O)/C(C)=C\C=C\[C@H](C)[C@H](O)[C@@H](C)[C@@H](O)[C@@H](C)[C@H](OC(C)=O)[C@@H]1C` [rifampicin], the “% of control at 50 uM” value in data set [2] is “Probenecid and rifampicin, which are typical inhibitors of organic anion transporters”.
As usually defined, the inhibition is the share of the control response that was lost under treatment. Consider `N[C@@H](CCC(=O)N[C@@H](CS)C(=O)NCC(=O)O)C(=O)O` [glutathione], for which the inhibition at 10000 µM in data set [3] came to 30%.
Still for that read-out and setting: for `Cc1nnc(SCC2=C(C(=O)O)N3C(=O)[C@@H](NC(=O)Cn4cnnn4)[C@H]3SC2)s1` [Cephazolin] the value was 43%.

B1: MCT13 (SLC16A13), untagged, co-expressed with CD147 (Homo sapiens) (protein)
chain: MARRTEPPDGGWGWVVVLSAFFQSALVFGVLRSFGVFFVEFVAAFEEQAARVSWIASIGIAVQQFGSPVGSALSTKFGPRPVVMTGGILAALGMLLASFATSLTHLYLSIGLLSGSGWALTFAPTLACLSCYFSRRRSLATGLALTGVGLSSFTFAPFFQWLLSHYAWRGSLLLVSALSLHLVACGALLRPPSLAEDPAVGGPRAQLTSLLHHGPFLRYTVALTLINTGYFIPYLHLVAHLQDLDWDPLPAAFLLSVVAISDLVGRVVSGWLGDAVPGPVTRLLMLWTTLTGVSLALFPVAQAPTALVALAVAYGFTSGALAPLAFSVLPELIGTRRIYCGLGLLQMIESIGGLLGPPLSGYLRDVTGNYTASFVVAGAFLLSGSGILLTLPHFFCFSTTTSGPQDLVTEALDTKVPLPKEGLEED
notes: untagged full-length MCT13, transiently co-transfected with CD147 in HEK293T cells; with Basigin
By Km is commonly meant the substrate concentration at which the rate is half of its maximum. On to B1, for which, in data set [4] (KCl buffer, 0.1-30 mM cephradine, co-expressed CD147), the Km is recorded as 2.83 ± 0.63 mM.

B2: EGFP-tagged MCT13 (with CD147) (Homo sapiens) (protein)
chain: MARRTEPPDGGWGWVVVLSAFFQSALVFGVLRSFGVFFVEFVAAFEEQAARVSWIASIGIAVQQFGSPVGSALSTKFGPRPVVMTGGILAALGMLLASFATSLTHLYLSIGLLSGSGWALTFAPTLACLSCYFSRRRSLATGLALTGVGLSSFTFAPFFQWLLSHYAWRGSLLLVSALSLHLVACGALLRPPSLAEDPAVGGPRAQLTSLLHHGPFLRYTVALTLINTGYFIPYLHLVAHLQDLDWDPLPAAFLLSVVAISDLVGRVVSGWLGDAVPGPVTRLLMLWTTLTGVSLALFPVAQAPTALVALAVAYGFTSGALAPLAFSVLPELIGTRRIYCGLGLLQMIESIGGLLGPPLSGYLRDVTGNYTASFVVAGAFLLSGSGILLTLPHFFCFSTTTSGPQDLVTEALDTKVPLPKEGLEED
notes: EGFP-tagged (pEGFP-C1) full-length MCT13, co-transfected with CD147 in HEK293T cells; with Basigin
B2: in data set [4] (EGFP-tagged MCT13), the Km is 3.95 ± 0.53 mM.

The values are drawn from publication PMC10458055, “Monocarboxylate Transporter 13 (MCT13/SLC16A13) Functions as a Novel Plasma Membrane Oligopeptide Transporter” (Nutrients, 2023).
